From ChEMBL document CHEMBL1124438, “Analysis of the in vitro antiviral activity of certain ribonucleosides against parainfluenza virus using a novel computer aided receptor modeling procedure” (1989)

Assays:
Type in all cases: functional
Human rhinovirus 1A = experiment: Virus rating against rhinovirus type 1A
Human respirovirus 3 = experiment: Virus rating against parainfluenza virus type 3
Human adenovirus 2 = experiment: Virus rating against adenovirus type 2
Human alphaherpesvirus 2 = experiment: Virus rating of against herpes simplex virus type 2

Question: With O=c1[nH]cnc2c1ccn2[C@@H]1O[C@H](CO)[C@@H](O)[C@H]1O [IMMUNICILLIN H] as the compound, how does the Rating (Human rhinovirus 1A) read?
Answer: 0

Question: And the Rating (Human respirovirus 3)?
Answer: 0.08

Question: And the Rating (Human adenovirus 2)?
Answer: 0

Question: Which Rating (Human alphaherpesvirus 2) does the source give for Nc1nc(Cl)nc2c1cnn2C1O[C@H](CO)[C@@H](O)[C@H]1O (stereo not given in full) here?
Answer: 0

Question: And the Rating (Human rhinovirus 1A)?
Answer: 0

Question: What about the Rating (Human respirovirus 3) of the same compound?
Answer: 0.15

Question: And the Rating (Human adenovirus 2)?
Answer: 0

Question: Which results are given for NC(=O)c1cn(C2O[C@H](CO)[C@@H](O)[C@H]2O)[nH]c1=O (stereo not given in full)?
Answer: Rating (Human alphaherpesvirus 2): 0; Rating (Human rhinovirus 1A): 0; Rating (Human respirovirus 3): 0.15; Rating (Human adenovirus 2): 0

Question: Nc1cc2c(ncn2[C@@H]2O[C@H](CO)[C@@H](O)[C@H]2O)c(=O)[nH]1 was tested. Which Rating (Human alphaherpesvirus 2) did it give?
Answer: 1.06

Question: What about the Rating (Human rhinovirus 1A) of the same compound?
Answer: 1

Question: And the Rating (Human respirovirus 3)?
Answer: 0.8

Question: What about the Rating (Human adenovirus 2) of the same compound?
Answer: 0.2

Question: For O=c1[nH]c(=O)c2[nH]nc([C@@H]3O[C@H](CO)[C@@H](O)[C@H]3O)c2[nH]1, which Rating (Human alphaherpesvirus 2) is on record?
Answer: 0.12

Question: And the Rating (Human rhinovirus 1A)?
Answer: 0

Question: What about the Rating (Human respirovirus 3) of the same compound?
Answer: 0.68

Question: And the Rating (Human adenovirus 2)?
Answer: 0

Question: Which Rating (Human alphaherpesvirus 2) does the source give for Cn1cnc2c([C@@H]3O[C@H](CO)[C@@H](O)[C@H]3O)nnc-2c1N here?
Answer: 0.88

Question: And the Rating (Human rhinovirus 1A)?
Answer: 0

Question: And the Rating (Human respirovirus 3)?
Answer: 1.16

Question: And the Rating (Human adenovirus 2)?
Answer: 0

Question: With OC[C@H]1OC(n2ncc3c(S)ncnc32)[C@H](O)[C@@H]1O (stereo not given in full) as the compound, how does the Rating (Human alphaherpesvirus 2) read?
Answer: 0

Question: And the Rating (Human rhinovirus 1A)?
Answer: 0

Question: And the Rating (Human respirovirus 3)?
Answer: 0.7

Question: What about the Rating (Human adenovirus 2) of the same compound?
Answer: 0

Question: CSc1ncnc2c([C@@H]3O[C@H](CO)[C@@H](O)[C@H]3O)n[nH]c12 was tested. Which Rating (Human alphaherpesvirus 2) did it give?
Answer: 0.3

Question: What about the Rating (Human rhinovirus 1A) of the same compound?
Answer: 0

Question: What about the Rating (Human respirovirus 3) of the same compound?
Answer: 1.35

Question: What about the Rating (Human adenovirus 2) of the same compound?
Answer: 0.8

Question: How did the Rating (Human respirovirus 3) turn out when OC[C@H]1O[C@@H](n2ccc3c(S)ncnc32)[C@H](O)[C@@H]1O was run?
Answer: 1.15

Question: With Cn1nc([C@@H]2O[C@H](CO)[C@@H](O)[C@H]2O)c2ncnc(N)c21 as the compound, how does the Rating (Human alphaherpesvirus 2) read?
Answer: 0.2

Question: What about the Rating (Human rhinovirus 1A) of the same compound?
Answer: 0

Question: And the Rating (Human respirovirus 3)?
Answer: 0.86

Question: And the Rating (Human adenovirus 2)?
Answer: 0

Question: With CSc1ncnc2c1ccn2[C@@H]1O[C@H](CO)[C@@H](O)[C@H]1O as the compound, how does the Rating (Human alphaherpesvirus 2) read?
Answer: 0

Question: What about the Rating (Human rhinovirus 1A) of the same compound?
Answer: 0.6

Question: What about the Rating (Human respirovirus 3) of the same compound?
Answer: 0.9

Question: And the Rating (Human adenovirus 2)?
Answer: 0

Question: How did the Rating (Human alphaherpesvirus 2) turn out when NC(=O)c1ccnc([C@@H]2O[C@H](CO)[C@@H](O)[C@H]2O)n1 was run?
Answer: 0

Question: And the Rating (Human rhinovirus 1A)?
Answer: 0

Question: And the Rating (Human respirovirus 3)?
Answer: 0.25

Question: And the Rating (Human adenovirus 2)?
Answer: 0

Question: How did the Rating (Human alphaherpesvirus 2) turn out when CSc1ncnc2c1cnn2C1O[C@H](CO)[C@@H](O)[C@H]1O (stereo not given in full) was run?
Answer: 0

Question: What about the Rating (Human rhinovirus 1A) of the same compound?
Answer: 0.6

Question: What about the Rating (Human respirovirus 3) of the same compound?
Answer: 1.05

Question: And the Rating (Human adenovirus 2)?
Answer: 0

Question: For CSc1ncnc2c1ncn2[C@@H]1O[C@H](CO)[C@@H](O)[C@H]1O, which Rating (Human alphaherpesvirus 2) is on record?
Answer: 1.25

Question: What about the Rating (Human rhinovirus 1A) of the same compound?
Answer: 0.8

Question: What about the Rating (Human respirovirus 3) of the same compound?
Answer: 2.2

Question: And the Rating (Human adenovirus 2)?
Answer: 0

Question: What does the source list for O=C1N=CN=C2C([C@@H]3O[C@H](CO)[C@@H](O)[C@H]3O)=NNC12 (stereo not given in full)?
Answer: Rating (Human alphaherpesvirus 2): 0; Rating (Human rhinovirus 1A): 0.3; Rating (Human respirovirus 3): 0.94; Rating (Human adenovirus 2): 0

Question: Which results are given for Nc1[nH]c(=O)nc2c([C@@H]3O[C@H](CO)[C@@H](O)[C@H]3O)n[nH]c12?
Answer: Rating (Human alphaherpesvirus 2): 0.75; Rating (Human rhinovirus 1A): 0; Rating (Human respirovirus 3): 1.22; Rating (Human adenovirus 2): 0

Question: With Cn1nc([C@@H]2O[C@H](CO)[C@@H](O)[C@H]2O)c2nc(=O)[nH]c(N)c21 as the compound, how does the Rating (Human respirovirus 3) read?
Answer: 0.88

Question: With N=C(N)c1ncn([C@@H]2O[C@H](CO)[C@@H](O)[C@H]2O)n1 [TARIBAVIRIN] as the compound, how does the Rating (Human alphaherpesvirus 2) read?
Answer: 0

Question: And the Rating (Human rhinovirus 1A)?
Answer: 0.2

Question: And the Rating (Human respirovirus 3)?
Answer: 1.2

Question: What about the Rating (Human adenovirus 2) of the same compound?
Answer: 0

Question: NC(=O)C1NN=C([C@@H]2O[C@H](CO)[C@@H](O)[C@H]2O)C1=O (stereo not given in full) was tested. Which Rating (Human alphaherpesvirus 2) did it give?
Answer: 1

Question: And the Rating (Human rhinovirus 1A)?
Answer: 0.6

Question: And the Rating (Human respirovirus 3)?
Answer: 1.65

Question: What about the Rating (Human adenovirus 2) of the same compound?
Answer: 0

Question: Nc1nn(C2O[C@H](CO)[C@@H](O)[C@H]2O)c2nc[nH]c(=O)c12 (stereo not given in full) was tested. Which Rating (Human alphaherpesvirus 2) did it give?
Answer: 0

Question: And the Rating (Human rhinovirus 1A)?
Answer: 0

Question: What about the Rating (Human respirovirus 3) of the same compound?
Answer: 0.28

Question: What about the Rating (Human adenovirus 2) of the same compound?
Answer: 0

Question: Which results are given for CN1C=NC(N)=C2NNC([C@@H]3O[C@H](CO)[C@@H](O)[C@H]3O)=C21?
Answer: Rating (Human alphaherpesvirus 2): 0; Rating (Human rhinovirus 1A): 0; Rating (Human respirovirus 3): 1.28; Rating (Human adenovirus 2): 0

Question: How did the Rating (Human alphaherpesvirus 2) turn out when OC[C@H]1O[C@@H](C2=NNC3C(=S)N=CN=C23)[C@H](O)[C@@H]1O (stereo not given in full) was run?
Answer: 0

Question: What about the Rating (Human rhinovirus 1A) of the same compound?
Answer: 0.9

Question: What about the Rating (Human respirovirus 3) of the same compound?
Answer: 1.1

Question: What about the Rating (Human adenovirus 2) of the same compound?
Answer: 1

Question: With Nc1nc(Cl)cc2c1ncn2C1O[C@H](CO)[C@@H](O)[C@H]1O (stereo not given in full) as the compound, how does the Rating (Human alphaherpesvirus 2) read?
Answer: 0

Question: What about the Rating (Human rhinovirus 1A) of the same compound?
Answer: 0

Question: And the Rating (Human respirovirus 3)?
Answer: 0.35

Question: And the Rating (Human adenovirus 2)?
Answer: 0

Question: What does the source list for OC[C@H]1OC(n2cc3c(O)nc(Cl)nc3n2)[C@H](O)[C@@H]1O (stereo not given in full)?
Answer: Rating (Human alphaherpesvirus 2): 0; Rating (Human rhinovirus 1A): 0; Rating (Human respirovirus 3): 0.25; Rating (Human adenovirus 2): 0

Question: Which Rating (Human alphaherpesvirus 2) does the source give for COc1c([C@@H]2O[C@H](CO)[C@@H](O)[C@H]2O)nn(C)c1C(N)=O here?
Answer: 0.3

Question: And the Rating (Human rhinovirus 1A)?
Answer: 0

Question: What about the Rating (Human respirovirus 3) of the same compound?
Answer: 1.65

Question: And the Rating (Human adenovirus 2)?
Answer: 1

Question: With NC(=O)c1csc([C@@H]2O[C@H](CO)[C@@H](O)[C@H]2O)n1 [TIAZOFURIN] as the compound, how does the Rating (Human alphaherpesvirus 2) read?
Answer: 1.19

Question: What about the Rating (Human rhinovirus 1A) of the same compound?
Answer: 0

Question: What about the Rating (Human respirovirus 3) of the same compound?
Answer: 1.3

Question: What about the Rating (Human adenovirus 2) of the same compound?
Answer: 0.2

Question: With Nc1ncnc2c([C@@H]3O[C@H](CO)[C@@H](O)[C@H]3O)[nH]nc12 [FORMYCIN] as the compound, how does the Rating (Human alphaherpesvirus 2) read?
Answer: 0.2

Question: What about the Rating (Human rhinovirus 1A) of the same compound?
Answer: 0.1

Question: And the Rating (Human respirovirus 3)?
Answer: 1.4

Question: What about the Rating (Human adenovirus 2) of the same compound?
Answer: 0

Question: Which results are given for NC(=O)c1ncn([C@@H]2O[C@H](CO)[C@@H](O)[C@H]2O)n1 [RIBAVIRIN]?
Answer: Rating (Human alphaherpesvirus 2): 1.4; Rating (Human rhinovirus 1A): 0.7; Rating (Human respirovirus 3): 1.3; Rating (Human adenovirus 2): 0.3
